Test results: US11510983B2 (priority 2013, dated 2022)

What was measured:
[1] = system: A/California/7/2009 (H1N1); set-up: species or system BALB/c mice; conditions: mouse, in vivo
[2] = system: A/California/7/2009 (H1N1); set-up: species or system BALB/c mice; conditions: mouse, in vivo; remark: listed apart in the source
[3] = pig, in vivo
[4] = set-up: species or system mice; conditions: mouse, in vivo

Molecule | time after which HAI titer started to decline to levels of non-adjuvanted flu vaccine [1] | elevation of IgG2a production [2] | type of immune response by IgG2a/IgG1 ratio [2] | skin response at the injection site [3] | raise of specific antibody titers in the presence vs. absence of laser pre-treatment [4]
CC(C)Cn1cnc2c(N)nc3ccccc3c21 [IMIQ, 1-(2-Methylpropyl)-1H-imidazo[4,5-c]quinolin-4-amine] | > 3 months | 5 fold | Th1-biased immune response | Diminished skin irritation | –
OVA: protein model antigen ovalbumin | – | – | – | – | 6 folds
